# Active and inactive are the calls of the source.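 The calls were made as follows: active = signal-decreasing dose-response curve whose fitted half-maximal concentration is at or below twice the highest valid tested dose; inconclusive = flat fit at 30 to 70% signal loss, or poor fit; inactive = the rest.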
# Test system: NIH3T3/HeLa viability, CellTiter-Glo ATP luminescence, 24 h
# Assay: cell viability loss after compound exposure – 24 h, luminescence, cherry-picked samples, cytotoxicity control for PDI inhibitor project, dose response (AID 624285)
row,Structure (SMILES),AC50
1,CN1CCN(Cc2nc3ccccc3c(=O)n2Cc2nc(-c3ccc4ccccc4c3)cs2)CC1,7.27 µM
2,CCOC(=O)Oc1c(OC)cc(C(=O)O[C@@H]2C[C@@H]3CN4CCc5c([nH]c6cc(OC)ccc56)[C@H]4C[C@@H]3[C@H](C(=O)OC)[C@H]2OC)cc1OC,27.3 µM
3,CN1CCN(CCOC2c3ccccc3CSc3ccc(Cl)cc32)CC1 (stereo unspecified),30.5 µM
4,CN(C)CCCN(C(=O)c1ccc(S(=O)(=O)N2CCCc3ccccc32)cc1)c1nc2ccc(F)cc2s1,18.2 µM
5,CCOc1cc(N2CCOCC2)c(OCC)cc1NC(=O)Cc1ccccc1OC,39.5 µM
6,Cc1c(O)ccc2c(CN3CCN(C/C=C/c4ccccc4)CC3)cc(=O)oc12,> 70 µM (inactive)
7,COc1cc(C2C(C#N)=C(N)Oc3cc(O)ccc32)cc(OC)c1OC (stereo unspecified),> 70 µM (inactive)
8,COc1c(Br)cc(C(N)=O)cc1OCc1ccccc1,> 70 µM (inactive)
9,C[C@@H]1CN([C@@H](C)CO)C(=O)Cc2cc(NC(=O)Nc3ccccc3)ccc2O[C@@H]1CN(C)Cc1ccccc1,> 60 µM (inactive)
10,CC[C@]12c3[nH]c4cc(-c5ccco5)ccc4c3CCN1C(=O)[C@@H](CC(=O)NCc1ccco1)C[C@@H]2C(=O)N1CCN(C(=O)c2ccco2)CC1,> 70 µM (inactive)
11,CC12CCC3c4ccc(O)cc4CCC3C1CCC2=O (stereo unspecified),> 70 µM (inactive)
12,CC(=O)Oc1ccc(C2OC(=O)c3ccccc3N2C(C)=O)cc1 (stereo unspecified),> 70 µM (inactive)
13,COc1cc2cc(C(=O)N3CC(COS(C)(=O)=O)c4ccc(O)cc43)[nH]c2c(OC)c1OC (stereo unspecified),0.0396 µM
14,O=c1cc(CN2CCN(S(=O)(=O)/C=C/c3ccccc3)CC2)c2ccc(O)cc2o1,> 70 µM (inactive)
15,C=CC[C@H](CC(=O)N(CCO)Cc1ccccc1)C(=O)N[C@H](COC(=O)[C@@H](CC=C)Cc1ccc(F)cc1)Cc1c[nH]c2ccccc12,30.8 µM
16,C[C@H]1CN([C@@H](C)CO)C(=O)Cc2cc(NC(=O)Nc3ccccc3)ccc2O[C@H]1CN(C)Cc1ccccc1,> 70 µM (inactive)
17,CCOc1cc(N2CCOCC2)c(OCC)cc1NC(=O)COC(=O)[C@H](Cc1c[nH]c2ccccc12)NC(C)=O,> 70 µM (inactive)
18,C[C@]12CC[C@@H]3c4ccc(O)cc4C(=O)C[C@H]3[C@@H]1CC[C@@H]2O,> 70 µM (inactive)
19,O=C(NCCc1c[nH]c2ccccc12)/C(=C\c1cccnc1)NC(=O)c1ccccc1Br,> 70 µM (inactive)
20,CN(C)CCCN(C(=O)c1ccc(S(=O)(=O)N2CCc3ccccc32)cc1)c1nc2c(Cl)cccc2s1,16.5 µM
21,CCCN(CCC)S(=O)(=O)c1ccc(C(=O)Nc2nnc(COC)o2)cc1,> 70 µM (inactive)
22,CCOC(=O)c1c(CN2CCOCC2)n(-c2ccccc2)c2cc(Br)c(O)cc12,> 70 µM (inactive)

row,Structure (SMILES),AC50
1,CS(=O)(=O)c1ccc(C(=O)OCC(=O)N2CCN(CCC3CCCCC3)CC2)cc1[N+](=O)[O-],3.32 µM
2,Cn1cnnc1Sc1ccc(/C=C/C(=O)c2ccc(O)cc2)cc1[N+](=O)[O-],12.3 µM
3,CC(=O)OC1CCC2C3CCC4=C(CC(F)C(=O)C4)C3CCC12C (stereo unspecified),> 70 µM (inactive)
4,COc1ccc(/C=C2\CN(Cc3ccccc3)C/C(=C\c3ccc(OC)c(O)c3)C2=O)cc1O,6.12 µM
5,CC(C)Sc1nnc([C@H](Cc2c[nH]c3ccccc23)NC(=O)OC(C)(C)C)o1,> 70 µM (inactive)
6,CCOC(=O)C1=C(c2ccccc2)N=c2s/c(=C\c3cccc(O)c3)c(=O)n2C1c1cccs1 (stereo unspecified),23 µM
7,O=C(NCc1ccccc1CN1CCCC1)c1cc2ccccc2o1,> 70 µM (inactive)
8,CCOC(=O)c1c(CNCCN(CC)CC)n(C)c2cc(Br)c(OC)cc12,> 70 µM (inactive)
9,CCOC(=O)c1c(CN(C)C)n(-c2ccc(C)cc2)c2cc(Br)c(O)cc12,> 70 µM (inactive)
10,CCOc1cc(/C=C/C(=O)c2ccc(O)cc2)ccc1OCC(=O)N(C)C,39.4 µM
11,COc1ccc(-c2nnc3ccc(SCC(=O)Nc4nc5ccccc5s4)nn23)cc1OC,> 70 µM (inactive)
12,Cc1noc(C)c1-c1ccc(C(=O)NCc2ccc(Cl)cc2)c2occc12,> 70 µM (inactive)
13,C[C@@H]1CN([C@H](C)CO)C(=O)c2cccc(NS(C)(=O)=O)c2O[C@H]1CN(C)Cc1ccc(Oc2ccccc2)cc1,> 70 µM (inactive)
14,COC1/C=C/C=C(\C)Cc2cc(O)c(Cl)c(c2)N(C)C(=O)CC(OC(=O)C(C)C)C2(C)OC2C(C)C2CC1(O)NC(=O)O2 (stereo unspecified),> 70 µM (inactive)
15,O=S(=O)(Nc1ccc(C(O)(C(F)(F)F)C(F)(F)F)cc1)c1ccc(Cl)c2nonc12,9.47 µM
16,CCOC(=O)C1(CCOc2ccccc2)CCN(Cc2ccc(O)c(Cl)c2)CC1,> 70 µM (inactive)
17,Cc1noc(C)c1S(=O)(=O)Nc1ccc2c(c1)CC(=O)N([C@@H](C)CO)C[C@@H](C)[C@@H](CN(C)S(=O)(=O)c1ccc(F)cc1)O2,> 70 µM (inactive)
18,Cc1sc(NC(=O)CCl)c(C(=O)c2ccccc2)c1C,15.4 µM
19,COc1ccc(C(=O)c2c(C)c3cc(C)ccc3n2CC(O)CN2CCOCC2)cc1 (stereo unspecified),> 70 µM (inactive)
20,CC(=O)c1cc(-c2ccccc2)n(CC(=O)Nc2cccc(C)c2)c1C,> 70 µM (inactive)
21,COc1cccc2c1C(=O)c1c(O)c3c(c(O)c1C2=O)CC(O)(C(C)=NO)CC3OC1CC(N)C(O)C(C)O1 (stereo unspecified),5.56 µM
22,CC[C@]12c3[nH]c4cc(-c5ccco5)ccc4c3CCN1C(=O)[C@@H](CC(=O)NCc1ccc(OC)c(OC)c1)C[C@@H]2C(=O)N1CCN(C(=O)c2ccco2)CC1,> 70 µM (inactive)

row,Structure (SMILES),AC50
1,Cc1cc(O)cc2c1C1CCC3(C)C(=O)CCC3C1C=C2 (stereo unspecified),> 70 µM (inactive)
2,C[C@@H]1CN([C@@H](C)CO)C(=O)c2cc(NC(=O)Cc3cn(C)c4ccccc34)ccc2O[C@@H]1CN(C)S(=O)(=O)c1ccc(F)cc1,> 70 µM (inactive)
3,NC(Cc1ccc(C(F)(F)F)cc1)c1csc(Nc2ccc(C(=O)NCCCO)cn2)n1 (stereo unspecified),35.1 µM
4,COc1ccc(Oc2ccc(/C=C/C(=O)c3ccc(O)cc3)cc2[N+](=O)[O-])cc1,12.4 µM
5,CCN1CCN(Cc2ccc(NC(=O)c3cc(NC(=O)c4cc(-c5ccc(OC)cc5)n[nH]4)cc(OC)c3)cc2C(F)(F)F)CC1,6.45 µM
6,CCOc1ccc(CCN2C(=O)C(=O)N([C@@H](CC(C)C)CN3CCC[C@@H]3CN3C(=O)C(=O)NC[C@@H]3Cc3ccccc3)C[C@@H]2Cc2ccc(O)cc2)cc1,38.1 µM
7,CCOC(=O)C1(CCOc2ccccc2)CCN(Cc2ccc(O)cc2)CC1,> 70 µM (inactive)
8,COc1ccc(OCCN2CCC(C(=O)NC(c3ccsc3)c3ccccc3C)CC2)cc1 (stereo unspecified),> 70 µM (inactive)
9,O=C(Nc1ccccc1N1CCCC1)c1cc(Cl)ccc1Cl,> 70 µM (inactive)
10,NNC(=O)c1cc(-c2ccc(O)cc2)nc2ccc(Br)cc12,> 70 µM (inactive)
11,CCOC(=O)c1c(CN2CCN(C)CC2)n(C)c2cc(Br)c(OC)cc12,22.2 µM
12,COCCN(CC(=O)Nc1ccccc1C(F)(F)F)C(=O)/C=C/c1cc(Cl)c2c(c1)OCCO2,> 70 µM (inactive)
13,Cc1ccc(C)c(N2CCN(S(=O)(=O)c3ccc4c(c3)OCCO4)CC2)c1,> 70 µM (inactive)
14,COc1ccc(/C=C/C(=O)c2cc(F)ccc2OC(=O)c2ccccc2OC)cc1OC,23.5 µM
15,Oc1cccc(-c2nc3c4c(ncn3n2)-c2ccccc2CC42CCCC2)c1,14.3 µM
16,O=C(/C=C/c1ccc(N2CCCCC2)c([N+](=O)[O-])c1)c1ccc(O)cc1,12 µM
17,CCSc1nnc([C@H](Cc2c[nH]c3ccccc23)NC(=O)OC(C)(C)C)o1,> 70 µM (inactive)
18,COC(=O)c1ccc(NC(=S)NCCc2cccc(C)c2)cc1,> 70 µM (inactive)
19,CCCCC(=O)OC1CCC2C3CCc4cc(O)ccc4C3CCC12C (stereo unspecified),27.3 µM
20,CCOC(=O)c1c(CN2CCN(C)CC2)n(-c2ccccc2)c2cc(Br)c(O)cc12,23.9 µM
21,CCOC(=O)C1(CCOc2ccccc2)CCN(Cc2cccc(O)c2)CC1,> 70 µM (inactive)
22,Cc1nnc(SCc2cc(=O)oc3cc(O)ccc23)n1Cc1ccccc1,> 70 µM (inactive)

row,Structure (SMILES),AC50
1,C[C@H]1CN([C@@H](C)CO)C(=O)Cc2cc(NC(=O)Nc3ccccc3)ccc2O[C@@H]1CN(C)Cc1ccccc1,37.9 µM
2,CN(c1ccccc1)S(=O)(=O)c1cc(C(=O)N2CCN(c3ncccn3)CC2)ccc1Cl,> 70 µM (inactive)
3,CC1(c2ccc3ccccc3c2)NC(=O)N(CC(=O)Nc2cccc(S(=O)(=O)N3CCOCC3)c2)C1=O (stereo unspecified),> 70 µM (inactive)
4,O=C(Nc1nccs1)c1ccc(-c2ccccc2[N+](=O)[O-])o1,> 70 µM (inactive)
5,Cc1cccn2c(CN(C)C3CCCc4ccccc43)c(C(=O)N3CCOCC3)nc12 (stereo unspecified),> 70 µM (inactive)
6,CCOC(=O)C1(CCOc2ccccc2)CCN(Cc2ccccc2O)CC1,> 70 µM (inactive)
7,O=C(CCC1CCCCC1)NCCN1C2=NC[C@H](Cc3ccc(O)cc3)N2C[C@H]1Cc1ccc(O)cc1,> 70 µM (inactive)
8,O=C(NC(Cc1c[nH]c2ccccc12)C(=O)N/N=C/c1cccnc1)c1cccs1 (stereo unspecified),> 70 µM (inactive)
9,Cc1cc(C(=O)Cn2nnc3ccccc3c2=O)c(C)n1-c1ccccc1F,> 70 µM (inactive)
10,CCOC(=O)c1c(CN(C)C)n(-c2ccccc2)c2cc(Br)c(O)cc12,> 70 µM (inactive)
11,O=C(Nc1nc2ccccc2s1)c1cccc(S(=O)(=O)N2CCc3ccccc32)c1,> 70 µM (inactive)
12,COc1ccc(/C=C2\Sc3ccc(C(=O)NCCCN4CCCC4)cc3N(C)C2=O)cc1OC,35.2 µM
13,O=C(COC(=O)c1ccccc1NC(=O)c1ccco1)NCCC1=CCCCC1,> 70 µM (inactive)
14,O=C(c1ccc(S(=O)(=O)N2CCCCC2)cc1)N1CCN(Cc2ccc3c(c2)OCO3)CC1,> 70 µM (inactive)
15,CCOC(=O)c1c(CN2CCOCC2)n(-c2ccccc2)c2ccc(O)cc12,> 70 µM (inactive)
16,COc1ccc(C2c3ccc(O)cc3Oc3ncn(CCN4CCOCC4)c(=N)c32)cc1OC (stereo unspecified),> 70 µM (inactive)
17,Cc1[nH][nH]c(=O)c1C(c1c(C)[nH][nH]c1=O)c1cn(Cc2ccccc2Cl)c2ccccc12,> 70 µM (inactive)
18,C[C@H]1CN([C@@H](C)CO)C(=O)c2cc(NC(=O)Cc3cn(C)c4ccccc34)ccc2O[C@@H]1CN(C)S(=O)(=O)c1ccc(F)cc1,> 70 µM (inactive)
19,Nc1ccc(C(=O)NN2C(=O)[C@H](Cl)C2c2ccc(Cl)cc2)cc1 (stereo partly specified),6.04 µM
20,Cc1ccc(N(Cc2ccccc2)C(=O)c2cccc(S(=O)(=O)N3CC(C)OC(C)C3)c2)cc1 (stereo unspecified),> 70 µM (inactive)
